# Reference: paper PMC6560211, “ApoAI-derived peptide increases glucose tolerance and prevents formation of atherosclerosis in mice” (Diabetologia, 2019)
# No end group written: not given here.
# System: DIO C57BL/6NTac mice
# Assay: GTT in diet-induced obesity (DIO) mice
# Assay type: in vivo, mouse
# Details: for insulin secretion in GTT: route comparison, n=6
# Procedure: Male C57BL/6NTac mice (Taconic, Ejby, Denmark) at 8–9 weeks of age were acclimatised for 1 week on a normal chow diet, then changed to a high-fat diet for 2 weeks (diet-induced obesity; DIO), followed by GTT as indicated. Male Lepr^db (db/db) mice on a BKS background (Taconic) at 5 weeks of age were maintained on a normal chow diet and GTTs were performed at 5.5 and 14 weeks of age as indicated. Blood glucose levels were measured in fresh blood (C57: OneTouch Ultra2, Lifescan, Milpitas, CA, USA; db/db: GlucoSmart Swing, MSP bodmann, Bobingen, Germany) and insulin levels were assayed in serum using ELISA (Mercodia) at the times indicated in ESM Fig. 2. See ESM Methods for more details.
# The effect of RG54 peptide on glucose disposal was investigated in an established insulin-resistant mouse model. DIO mice were fasted for 9 h followed by a single i.p. dose of RG54 (12 mg/kg), ApoA-I (14 mg/kg), liraglutide (0.1 mg/kg), or an equal volume of NaCl solution. After a further 3 h fasting period, GTTs were performed (Fig. 4a,b).
# Fig. 4 Acute treatment with RG54 improves glucose tolerance during GTTs in three models of type 2 diabetes. Male C57Bl/6 mice fed a high-fat diet for 2 weeks (a–d) or db/db mice at 5.5 (e–h) or 14 (i–l) weeks old were fasted overnight, then treated with a single i.p. injection of NaCl (negative control, 200 μl; C57, n=12; db/db 5.5 weeks, n=6; db/db 14 weeks, n=6), liraglutide (0.1 mg/kg; C57, n=11; db/db 5.5 weeks, n=6; db/db 14 weeks, n=6), ApoA-I (14 mg/kg; C57, n=12; db/db 5.5 weeks, n=6; db/db 14 weeks, n=6) or RG54 (12 mg/kg; C57, n=12; db/db 5.5 weeks, n=6; db/db 14 weeks, n=5). After a further 3 h, mice received an i.p. glucose load (40 mg/mouse for C57; 50 mg/mouse for db/db) followed by blood and plasma collection at the indicated times, and blood glucose (a,e,i) and plasma insulin (b,f,j) concentrations were determined. Total AUC was calculated (mmol/l × min for glucose, pmol/l × min for insulin) and then normalised to the average value of the relevant NaCl control group to give relative AUC (% control) for glucose (c,g,k) and insulin (d,h,l). Values are means ± SEM. *p≤0.05, **p≤0.01, ***p≤0.001 vs NaCl control […]
# We directly compared the i.p. and s.c. injection routes in DIO mice. DIO mice were fasted for 9 h, followed by a single i.p. or s.c. injection of RG54 (12 mg/kg), ApoA-I (14 mg/kg), or an equal volume of NaCl solution. After a further 3 h fasting and incubation period, GTTs were performed. […] Finally, we assessed the dose response of s.c. RG54 to find treatment concentrations with full or partial effects on glycaemic control as compared with our positive control (Fig. 6).
# Male C57Bl/6 mice fed a high-fat diet for 2 weeks were fasted overnight, then treated with a single i.p. or s.c. injection of NaCl (negative control, 200 μl, n=6), ApoA-I (14 mg/kg, n=6) or RG54 (12 mg/kg, n=6). After a further 3 h, all mice received an i.p. glucose load (40 mg/mouse) followed by blood and plasma collection at the indicated times, and blood glucose (a,b) and plasma insulin (d,e) concentrations were determined for all injection routes. Total AUC was calculated (mmol/l × min for glucose, pmol/l × min for insulin) and then normalised to the average value of the relevant NaCl control group to give relative AUC (% control) for glucose (c) and insulin (f). Values are means ± SEM. ***p≤0.001 vs NaCl control […]
# Male C57BL/6NTac mice were purchased from Taconic (Ejby, Denmark) at 8-9 weeks of age, acclimatised for one week on normal chow diet, then changed to a High-Fat Diet (HFD; Research Diets D12492, 60% fat content) for 2 weeks, followed by glucose tolerance testing (GTT) with timings as indicated (ESM Figure 2). Male Leprdb mice (db/db) on BKS background purchased from Taconic (BKS.Cg-m+/+Leprdb/BomTac, Ejby, Denmark) at 5 weeks of age were maintained on normal chow diet and GTTs were performed at 5.5 and 14 weeks of age with timings as indicated (ESM Figure 2). For the GTTs, mice fasted overnight […]
substance,measurement,setting,value
Ac-AEYHAKATEHLSTLSEKAKPALEDLRQGLLPVLESFKVSFLSALEEYTKKLNTQ [RG54],fasting glucose levels,"DIO mice, 3 h treatment, i.p.",significantly lowered
same,fasting insulin levels,"DIO mice, 3 h treatment, i.p.",no concomitant increase
same,insulin sensitivity as measured by QUICKI,"DIO mice, 3 h treatment, i.p.",no change
same,insulin secretion in GTT,"i.p. injection, RG54 12 mg/kg, ApoA-I 14 mg/kg",increased insulin secretion
same,insulin secretion in GTT,"s.c. injection, 12 mg/kg",increased glucose clearance and insulin secretion
same,levels of serum insulin in GTT,"single i.p. dose 12 mg/kg 3 h before GTT, vs NaCl, n=12",significantly increased
